Measured values taken from patent US11701394B2, “Compositions and methods for treating cholestatic disease” (Seres Therapeutics, Inc., priority 2017, dated 2023).

Columns and labels:
[1] = biological target: T1, human FXR (Homo sapiens, UniProt Q96RI1); conditions: in the presence of 50 uM CDCA
T1 sequence (Q96RI1 262-486 limits assumed): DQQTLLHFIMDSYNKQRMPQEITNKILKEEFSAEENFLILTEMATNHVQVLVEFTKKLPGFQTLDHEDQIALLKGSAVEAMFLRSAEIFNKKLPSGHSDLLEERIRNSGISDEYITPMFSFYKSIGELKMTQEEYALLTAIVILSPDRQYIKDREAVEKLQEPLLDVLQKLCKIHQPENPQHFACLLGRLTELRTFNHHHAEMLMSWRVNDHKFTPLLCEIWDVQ
Description: FXR reporter cell assays were performed by Indigo Biosciences as directed by Seres Therapeutics using Indigo's FXR reporter CHO cell line, which expresses an FXR receptor hybrid in which the native N-terminal DNA binding domain (DBD) has been replaced with that of a yeast Gal4 DBD. The reporter gene, firefly luciferase, is functionally linked to a Gal4 upstream activation sequence (UAS). […] Luminescence was determined following incubation with substrate and a detection reagent. In addition, live cell count was determined within the assay using a Live Cell Multiplex (LCM) Assay (Indigo Biosciences).

[2] = test system: FXR; assay: FXR signaling in mice: CYP7A1 (liver) and FGF-15 (ileum) expression
Excerpt: We therefore tested a dose range of OCA as well as a fixed concentration of CA for their effects on FXR signaling in mice. Ileal and liver FXR signaling was monitored based on the expression of CYP7A1 (liver) and FGF-15 (Ileum).

| SMILES | hFXR activation in combination with CDCA [1] | CYP7A1 expression (liver) [2] | FGF-15 levels (ileum) [2] |
| --- | --- | --- | --- |
| C[C@H](CCC(=O)O)[C@H]1CC[C@H]2[C@@H]3[C@H](O)[C@H](O)[C@@H]4C[C@H](O)CC[C@]4(C)[C@H]3CC[C@]12C [HCA, hyocholic acid] | activated human FXR in a dose-dependent and synergistic manner | – | – |
| CC[C@H]1[C@@H](O)[C@@H]2[C@H](CC[C@]3(C)[C@@H]([C@H](C)CCC(=O)O)CC[C@@H]23)[C@@]2(C)CC[C@@H](O)C[C@@H]12 [OCA, obeticholic acid] | – | dose dependent decrease in CYP7A1 expression | increase in FGF-15 levels |
| C[C@H](CCC(=O)O)[C@H]1CC[C@H]2[C@@H]3[C@H](O)C[C@@H]4C[C@H](O)CC[C@]4(C)[C@H]3C[C@H](O)[C@]12C [cholic acid] | – | decreased CYP7A1 expression | increased FGF-15 levels in the ileum |
